Data: patent US11746103B2, “ALK-5 inhibitors and uses thereof” (Sumitomo Pharma Oncology, Inc., priority 2020, dated 2023)

Legend:
[1] = tested on: TGF-beta induced SMAD signaling; assay: RDSR (RD SMAD reporter) Cellular Reporter Assay; assay type: cell-based; conditions: Homo sapiens; 200 pg/ml rhTGF-beta1, 24 h; read-out: RD-SMAD reporter activity
Method in brief: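 Human rhabdomyosarcoma RD cells stably carrying an SBE-driven luc2P luciferase reporter. Inhibition of SMAD signaling was quantified from ONE-Glo luminescence.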

[2] = tested on: p-SMAD2 (Ser465/Ser467) in A549 xenograft; assay: Longitudinal PK/PD analysis of p-SMAD2 in A549 xenograft mouse model (PD); assay type: in vivo; conditions: 75 mg/kg single oral dose; for inhibition at 75 mg/kg: Mus musculus, A549, 4 hours post drug administration, read-out: inhibition of p-SMAD2 compared to the vehicle group
Protocol: In this study, p-SMAD2 (Ser465/Ser467) and a housekeeping gene (GAPDH) were measured at six timepoints from zero (established using vehicle-treated animals) up to twenty-four hours post dose for a single drug dose of seventy-five milligrams per kilogram per subject (three subjects per dosing group).
For this study, xenografts were prepared and implanted in mice as follows. At five weeks of age, female athymic nude mice (purchased from Charles River) were injected with approximately 3.2 million A549 cells (ATCC, CCL-185). Cells were harvested and resuspended in plain RPMI media (no phenol red added) and Matrigel (Corning 356237) at a one-to-one ratio, and two hundred-microliters of the cell suspension were injected into the right hind flank of each mouse. Tumors were measured every three days by caliper, and as tumors reached an average of ninety millimeters cubed, mice were randomized in groups of three. Each of the test compounds (Ex-10 and Ex-11) was resuspended in 1-methyl-2-pyrrolidinone (Sigma, 494496) (10%) plus 20% Solutol (Sigma 42966) in water (90%). The drug suspensions were sonicated for fifteen minutes to generate a fine particle suspension before being given to the test subjects. Subjects were dosed (per oral gavage) with the suspension. A vehicle control group with three mice was used to establish the baseline and timepoint zero of phospho-SMAD-2 in the tumor xenograft. The test compounds were administered to the respective subject groups at seventy-five milligrams per kilogram. Samples were obtained post administration of test compounds at 20 minutes, one hour, two hours, four hours, and twenty-four hours. Tumors were harvested, snap frozen and stored at negative eighty degrees Celsius until further processing. Plasma was collected from all animals by collecting whole blood via cardiac puncture, followed by centrifugation in tubes containing EDTA (BD, microtainer tubes, 365974). A group of three mice receiving vehicle only served as the zero timepoint for both drug groups. The phospho-SMAD-2 levels were determined using the Bio-Plex Pro™ Phospho-Smad2 (Ser465/Ser467) Set (BioRad 171V50019M). The phospho-SMAD-2 levels were normalized to GAPDH (MILLIPLEX MAP GAPDH Total Magnetic Bead MAPmate™, Millipore 46-667MAG) levels from each sample. All analytes were analyzed in a multiplex fashion with the Bio-Plex Pro Cell Signaling Reagent Kit (BioRad 171304006M). Frozen tumor samples (fifteen to thirty milligrams) were lysed in 100 μl lysis buffer, processed in a bead mill tube, and centrifuged. The resulting lysate was used at 1:50 dilution for the assay according to the manufacturer's instructions. Bead suspension was analyzed using the Luminex system (MAGPIX).

[3] = tested on: antigen presentation pathway (APP); assay: Nanostring differential gene expression analyses of 4T1, EMT6 and S91 tumors; assay type: in vivo, mouse; conditions: 4T1, EMT6, S91 tumors
Text: The objective of this study was to determine the differential gene expression (DGE) patterns of 4T1, EMT6, and S91 tumors treated with EX-11+immune checkpoint inhibitor (ICI), EX-11 alone, ICI alone, or vehicle control. For the purpose of this study, ICI=anti-PD-1 or anti-PD-L1, as indicated.
For NanoString assays, tumors from three syngeneic models of cancer were used:
RNA was isolated from the frozen tumors of ≥3 mice per group using the Direct-Zol RNA Miniprep (Zymo Research). The treatment arms and number of mice/tumors used for downstream applications is outlined in Table 17 (R=Responder, NS=Non-responder).
Equal concentrations of RNA for each tumor within each group were pooled. Two-hundred ng of RNA per group was used for downstream applications. Three separate NanoString nCounter panels were used per protocol: 1) Fibrosis, 2) PanCancer Pathways, 3) Immunology. RCC raw data files were uploaded into nCounter 4.0 software where counts were normalized to housekeeping genes. Gene lists in each panel were combined into a single spreadsheet for downstream analyses. For genes found in […], mean count values were used. RStudio software was used to generate heat maps of DGE signatures within each study for each group. Ingenuity Pathway Analysis (IPA) was used to identify the dysregulated signaling pathways within each study for each group.

EMT6 tumors = assay: Combination of EX-11 and abraxane in EMT6 TNBC syngeneic model; assay type: in vivo, mouse; conditions: abraxane 30 mg/kg IP Q7d; EX-11 150 mg/kg PO BID
Text: Abraxane (product of Bristol Myers Squibb) was purchased from St Josef Hospital (Freiburg, Germany). The vehicle for abraxane was 0.9% NaCl.

SMILES	IC50 [1]	p-SMAD2 levels at 24 hours post drug administration [2]	inhibition at 75 mg/kg [2]	antigen presentation pathway (APP) in tumors [3]	tumor volume compared to vehicle (EMT6 tumors)
Cc1cccc2c(Nc3ccnc(Nc4ccc(N5CCOCC5)cc4)n3)cnnc12 [EX-10, N4-(8-methylcinnolin-4-yl)-N2-(4-morpholino-phenyl)-pyrimidine-2,4-diamine]	< 100 nM	rose back to baseline levels	74.3%		
Cc1cccc2c(Nc3ccnc(Nc4cccc(N5CCOCC5)c4)n3)cnnc12 [EX-11, N4-(8-methylcinnolin-4-yl)-N2-(3-morpholinophenyl)pyrimidine-2,4-diamine]	< 100 nM	rose back to baseline levels	92.3%	upregulates the APP in tumors	did not show efficacy compared to vehicle
